Laboratory results as given in ChEMBL document CHEMBL4616718, “Discovery of Potent Small-Molecule Inhibitors of MLL Methyltransferase” (ACS Med Chem Lett, 2020).

molecular target: MLL1-ASH2L/RbBP5/WDR5/DPY30; assay: Inhibition of recombinant human MLL1 complex (MLL1/Ash2L/RbBP5/WDR5/DPY-30) expressed in Escherichia coli Rosetta 2 (DE3) cells using H3 (1 to 21) peptide as substrate incubated for 1 hr in presence of 3[H] SAM by […] assay

Compound | IC50
NCCN(CC[C@H](N)C(=O)O)C[C@H]1O[C@@H](n2cnc3c(N)ncnc32)[C@H](O)[C@@H]1O | 592 nM
Nc1ncnc2c1ncn2[C@@H]1O[C@H](CN(CC[C@H](N)C(=O)O)C2CN(CCCC3CCCC3)C2)[C@@H](O)[C@H]1O | 234 nM
Nc1ncnc2c1ncn2[C@@H]1O[C@H](CN(CC[C@H](N)C(=O)O)CC2CN(Cc3ccccc3Cl)C2)[C@@H](O)[C@H]1O | 150 nM
Nc1ncnc2c1ncn2[C@@H]1O[C@H](CN(CC[C@H](N)C(=O)O)CC2CN(Cc3coc4ccccc34)C2)[C@@H](O)[C@H]1O | 119 nM
Nc1ncnc2c1ncn2[C@@H]1O[C@H](CN(CC[C@H](N)C(=O)O)CC2CN(CCC(c3ccccc3)c3ccccc3)C2)[C@@H](O)[C@H]1O | 138 nM
Nc1ncnc2c1ncn2[C@@H]1O[C@H](CN(CC[C@H](N)C(=O)O)C2CC(NCCCC3CCCC3)C2)[C@@H](O)[C@H]1O (some centres undefined) | 127 nM
Nc1ncnc2c1ncn2[C@@H]1O[C@H](CN(CC[C@H](N)C(=O)O)C2CC(CNCCCc3ccccc3)C2)[C@@H](O)[C@H]1O (some centres undefined) | 451 nM
Nc1ncnc2c1ncn2[C@@H]1O[C@H](CN(CC[C@H](N)C(=O)O)Cc2cn(CCc3ccccc3)nn2)[C@@H](O)[C@H]1O | 132 nM
Nc1ncnc2c1ncn2[C@@H]1O[C@H](CN(CCCNCCCc2ccccc2)CC[C@H](N)C(=O)O)[C@@H](O)[C@H]1O | 201 nM
Nc1ncnc2c1ncn2[C@@H]1O[C@H](CSCC[C@H](N)C(=O)O)[C@@H](O)[C@H]1O [S-ADENOSYLHOMOCYSTEINE] | 724 nM

Compounds with a lower IC50, results first:

IC50 | Compound
99.5 nM | Nc1ncnc2c1ncn2[C@@H]1O[C@H](CN(CC[C@H](N)C(=O)O)CC2CN(Cc3cccc(Cl)c3)C2)[C@@H](O)[C@H]1O
72.4 nM | CCCCN1CC(CN(CC[C@H](N)C(=O)O)C[C@H]2O[C@@H](n3cnc4c(N)ncnc43)[C@H](O)[C@@H]2O)C1
66.5 nM | Nc1ncnc2c1ncn2[C@@H]1O[C@H](CN(CC[C@H](N)C(=O)O)CC2CN(Cc3cccs3)C2)[C@@H](O)[C@H]1O
55.6 nM | Nc1ncnc2c1ncn2[C@@H]1O[C@H](CN(CC[C@H](N)C(=O)O)CC2CN(Cc3ccc(Cl)cc3)C2)[C@@H](O)[C@H]1O
46.8 nM | Nc1ncnc2c1ncn2[C@@H]1O[C@H](CN(CC[C@H](N)C(=O)O)CC2CN(Cc3ccccc3)C2)[C@@H](O)[C@H]1O
29.6 nM | Nc1ncnc2c1ncn2[C@@H]1O[C@H](CN(CC[C@H](N)C(=O)O)CC2CN(CCCc3ccccc3)C2)[C@@H](O)[C@H]1O
25.5 nM | Nc1ncnc2c1ncn2[C@@H]1O[C@H](CN(CC[C@H](N)C(=O)O)CC2CN(CCCC3CCCC3)C2)[C@@H](O)[C@H]1O
21.8 nM | Nc1ncnc2c1ncn2[C@@H]1O[C@H](CN(CC[C@H](N)C(=O)O)CC2CN(Cc3ccoc3)C2)[C@@H](O)[C@H]1O
15.2 nM | Nc1ncnc2c1ncn2[C@@H]1O[C@H](CN(CC[C@H](N)C(=O)O)CC2CN(Cc3ccsc3)C2)[C@@H](O)[C@H]1O
